This note sets out measurements from US8952157B2, “Apoptosis-inducing agents for the treatment of cancer and immune and autoimmune diseases” (AbbVie Inc., priority 2008, dated 2015).

pKi: −log10 of the molar value.

GST-Bcl-2, sequence (P10415 whole entry): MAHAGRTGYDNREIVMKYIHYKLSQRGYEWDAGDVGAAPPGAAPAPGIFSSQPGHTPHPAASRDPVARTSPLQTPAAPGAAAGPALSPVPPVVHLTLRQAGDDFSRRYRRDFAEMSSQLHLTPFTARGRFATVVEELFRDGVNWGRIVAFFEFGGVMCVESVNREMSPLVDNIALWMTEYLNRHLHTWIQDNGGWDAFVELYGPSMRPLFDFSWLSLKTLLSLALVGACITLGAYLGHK

The assay has as its target GST-Bcl-2 (Homo sapiens (Human), UniProt P10415). Briefly: Time Resolved-Fluorescence Resonance Energy Transfer (TR-FRET) Bcl-2 binding assay. The settings on record: GST-Bcl-2 1 nM, F-Bak peptide probe 100 nM, Tb-anti-GST antibody 1 nM; Ki by Wang's equation. The gist of the method:
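Competition TR-FRET: GST-Bcl-2 with fluorescent Bak peptide probe and Tb-anti-GST antibody, compounds serially diluted from 50 μM (2× start, 10% DMSO).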
Turning to `CC1(C)CCC(CN2CCN(c3ccc(C(=O)NS(=O)(=O)c4ccc(NC5CCN(C6CC6)CC5)c([N+](=O)[O-])c4)c(Oc4cc5cc[nH]c5cc4F)c3)CC2)=C(c2ccc(Cl)cc2)C1` [Example 327, 4-(4-{[2-(4-chlorophenyl)-4,4-dimethylcyclohex-1-en-1-yl]methyl}piperazin-1-yl)-N-({4-[(1-cyclopropylpiperidin-4-yl)amino]-3-nitrophenyl}sulfonyl)-2-[(6-fluoro-1H-indol-5-yl)oxy]benzamide], the pKi was 9.67. Turning to `CC1(C)CCC(CN2CCN(c3ccc(C(=O)NS(=O)(=O)c4ccc(NCCCN5CCOCC5)c([N+](=O)[O-])c4)c(Oc4ccccc4F)c3)CC2)=C(c2ccc(Cl)cc2)C1` [Example 125, 4-(4-{[2-(4-chlorophenyl)-4,4-dimethylcyclohex-1-en-1-yl]methyl}piperazin-1-yl)-2-(2-fluorophenoxy)-N-({4-[(3-morpholin-4-ylpropyl)amino]-3-nitrophenyl}sulfonyl)benzamide], the pKi is 10.12. Take `CN1CCC(CNc2ccc(S(=O)(=O)NC(=O)c3ccc(N4CCN(CC5=C(c6ccc(Cl)cc6)CC(C)(C)CC5)CC4)cc3Oc3cccc(Cl)c3)cc2[N+](=O)[O-])CC1` [Example 155, 2-(3-chlorophenoxy)-4-(4-{[2-(4-chlorophenyl)-4,4-dimethylcyclohex-1-en-1-yl]methyl}piperazin-1-yl)-N-[(4-{[(1-methylpiperidin-4-yl)methyl]amino}-3-nitrophenyl)sulfonyl]benzamide]: the pKi was 10.21. For the compound `CN(C)C(=O)c1ccccc1Oc1cc(N2CCN(Cc3ccccc3-c3ccc(Cl)cc3)CC2)ccc1C(=O)NS(=O)(=O)c1ccc(NCC2CCOCC2)c([N+](=O)[O-])c1` [Example 30, 2-(5-(4-((4′-chlorobiphenyl-2-yl)methyl)piperazin-1-yl)-2-(3-nitro-4-((tetrahydro-2H-pyran-4-yl)methylamino)phenylsulfonylcarbamoyl)phenoxy)-N,N-dimethylbenzamide], the pKi is 10.15. The same measure for `CC1(C)CCC(CN2CCN(c3ccc(C(=O)NS(=O)(=O)c4ccc(NC5CCN(Cc6ccsc6)CC5)c([N+](=O)[O-])c4)c(Oc4cccc(F)c4F)c3)CC2)=C(c2ccc(Cl)cc2)C1` [Example 136, 4-(4-{[2-(4-chlorophenyl)-4,4-dimethylcyclohex-1-en-1-yl]methyl}piperazin-1-yl)-2-(2,3-difluorophenoxy)-N-[(3-nitro-4-{[1-(thien-3-ylmethyl)piperidin-4-yl]amino}phenyl)sulfonyl]benzamide]: 9.75.

In turn, `N#Cc1cccc(Oc2cc(N3CCN(Cc4ccccc4-c4ccc(Cl)cc4)CC3)ccc2C(=O)NS(=O)(=O)c2ccc(NCC3CCOCC3)c([N+](=O)[O-])c2)c1` [Example 22, 4-(4-((4′-chloro-1,1′-biphenyl-2-yl)methyl)piperazin-1-yl)-2-(3-cyanophenoxy)-N-((3-nitro-4-((tetrahydro-2H-pyran-4-ylmethyl)amino)phenyl)sulfonyl)benzamide] had a pKi of 8.26. The compound `CC1(C)CCC(CN2CCN(c3ccc(C(=O)NS(=O)(=O)c4ccc(NCC5CCOCC5)c([N+](=O)[O-])c4)c(Oc4cnc(N)c(Cl)c4)c3)CC2)=C(c2ccc(Cl)cc2)C1` [Example 318, 2-[(6-amino-5-chloropyridin-3-yl)oxy]-4-(4-{[2-(4-chlorophenyl)-4,4-dimethylcyclohex-1-en-1-yl]methyl}piperazin-1-yl)-N-({3-nitro-4-[(tetrahydro-2H-pyran-4-ylmethyl)amino]phenyl}sulfonyl)benzamide] showed a pKi of over 11.00.

As to `CN1CCC(Nc2ccc(S(=O)(=O)NC(=O)c3ccc(N4CCN(CC5=C(c6ccc(Cl)cc6)CC(C)(C)CC5)CC4)cc3Oc3cc(F)c4[nH]ccc4c3)cc2[N+](=O)[O-])CC1` [Example 50, 4-(4-((2-(4-chlorophenyl)-4,4-dimethylcyclohex-1-en-1-yl)methyl)piperazin-1-yl)-2-((7-fluoro-1H-indol-5-yl)oxy)-N-((4-((1-methylpiperidin-4-yl)amino)-3-nitrophenyl)sulfonyl)benzamide], the pKi is 10.21.

The compound `CN(C)CCCc1c[nH]c2cccc(Oc3cc(N4CCN(CC5=C(c6ccc(Cl)cc6)CC(C)(C)CC5)CC4)ccc3C(=O)NS(=O)(=O)c3ccc(NN4CCN(C)CC4)c([N+](=O)[O-])c3)c12` [Example 340, 4-(4-{[2-(4-chlorophenyl)-4,4-dimethylcyclohex-1-en-1-yl]methyl}piperazin-1-yl)-2-({3-[3-(dimethylamino)propyl]-1H-indol-4-yl}oxy)-N-({4-[(4-methylpiperazin-1-yl)amino]-3-nitrophenyl}sulfonyl)benzamide] gave a pKi of 9.41. As for `CN1CCC(Nc2ccc(S(=O)(=O)NC(=O)c3ccc(N4CCN(CC5=C(c6ccc(Cl)cc6)CC(C)(C)CC5)CC4)cc3Oc3ccc4nc(N)sc4c3)cc2[N+](=O)[O-])CC1` [Example 229, 2-[(2-amino-1,3-benzothiazol-6-yl)oxy]-4-(4-{[2-(4-chlorophenyl)-4,4-dimethylcyclohex-1-en-1-yl]methyl}piperazin-1-yl)-N-({4-[(1-methylpiperidin-4-yl)amino]-3-nitrophenyl}sulfonyl)benzamide], the figure is 8.96.

`CN1CCC(Nc2ccc(S(=O)(=O)NC(=O)c3ccc(N4CCN(CC5=C(c6ccc(Cl)cc6)CC(C)(C)CC5)CC4)cc3Oc3c(F)cccc3Cl)cc2[N+](=O)[O-])CC1` [Example 151, 2-(2-chloro-6-fluorophenoxy)-4-(4-{[2-(4-chlorophenyl)-4,4-dimethylcyclohex-1-en-1-yl]methyl}piperazin-1-yl)-N-({4-[(1-methylpiperidin-4-yl)amino]-3-nitrophenyl}sulfonyl)benzamide] gave a pKi of 8.16.

Compound `COCCNc1ccc(S(=O)(=O)NC(=O)c2ccc(N3CCN(CC4=C(c5ccc(Cl)cc5)CC(C)(C)CC4)CC3)cc2Oc2cccc3c2CC(=O)N3)cc1[N+](=O)[O-]` [Example 321, 4-(4-{[2-(4-chlorophenyl)-4,4-dimethylcyclohex-1-en-1-yl]methyl}piperazin-1-yl)-N-({4-[(2-methoxyethyl)amino]-3-nitrophenyl}sulfonyl)-2-[(2-oxo-2,3-dihydro-1H-indol-4-yl)oxy]benzamide] showed a pKi of 10.54. On to `CC1(C)CCC(CN2CCN(c3ccc(C(=O)NS(=O)(=O)c4ccc(NC5CCN(C6CC6)CC5)c([N+](=O)[O-])c4)c(Oc4cccc(F)c4F)c3)CC2)=C(c2ccc(Cl)cc2)C1` [Example 121, 4-(4-{[2-(4-chlorophenyl)-4,4-dimethylcyclohex-1-en-1-yl]methyl}piperazin-1-yl)-N-({4-[(1-cyclopropylpiperidin-4-yl)amino]-3-nitrophenyl}sulfonyl)-2-(2,3-difluorophenoxy)benzamide], for which the pKi is 10.09. The same measure for `CC1(C)CCC(CN2CCN(c3ccc(C(=O)NS(=O)(=O)c4ccc(OCC5COCCO5)c([N+](=O)[O-])c4)c(Oc4cc5cc[nH]c5cc4F)c3)CC2)=C(c2ccc(Cl)cc2)C1` (centres unmarked) [Example 285, 4-(4-{[2-(4-chlorophenyl)-4,4-dimethylcyclohex-1-en-1-yl]methyl}piperazin-1-yl)-N-{[4-(1,4-dioxan-2-ylmethoxy)-3-nitrophenyl]sulfonyl}-2-[(6-fluoro-1H-indol-5-yl)oxy]benzamide]: 10.43; for `CN1CCN(CCCNc2ccc(S(=O)(=O)NC(=O)c3ccc(N4CCN(CC5=C(c6ccc(Cl)cc6)CC(C)(C)CC5)CC4)cc3Oc3cccc(Cl)c3)cc2[N+](=O)[O-])CC1` [Example 143, 2-(3-chlorophenoxy)-4-(4-{[2-(4-chlorophenyl)-4,4-dimethylcyclohex-1-en-1-yl]methyl}piperazin-1-yl)-N-[(4-{[3-(4-methylpiperazin-1-yl)propyl]amino}-3-nitrophenyl)sulfonyl]benzamide]: 10.28; for `CC1(C)CCC(CN2CCN(c3ccc(C(=O)NS(=O)(=O)c4ccc(NCC5COCCO5)c([N+](=O)[O-])c4)c(Oc4cnc(N)c(Br)c4)c3)CC2)=C(c2ccc(Cl)cc2)C1` (centres unmarked) [Example 361, 2-[(6-amino-5-bromopyridin-3-yl)oxy]-4-(4-{[2-(4-chlorophenyl)-4,4-dimethylcyclohex-1-en-1-yl]methyl}piperazin-1-yl)-N-({4-[(1,4-dioxan-2-ylmethyl)amino]-3-nitrophenyl}sulfonyl)benzamide]: 10.82.

In turn, `COc1cccc(Oc2cc(N3CCN(Cc4ccccc4-c4ccc(Cl)cc4)CC3)ccc2C(=O)NS(=O)(=O)c2ccc(NCC3CCOCC3)c([N+](=O)[O-])c2)c1` [Example 20, 4-(4-((4′-chloro-1,1′-biphenyl-2-yl)methyl)piperazin-1-yl)-2-(3-methoxyphenoxy)-N-((3-nitro-4-((tetrahydro-2H-pyran-4-ylmethyl)amino)phenyl)sulfonyl)benzamide] had a pKi of 8.40.

On to `CC1(C)CCC(CN2CCN(c3ccc(C(=O)NS(=O)(=O)c4ccc(NCC5CCOCC5)c([N+](=O)[O-])c4)c(Oc4ccccc4-c4cn[nH]c4)c3)CC2)=C(c2ccc(Cl)cc2)C1` [Example 406, 4-(4-{[2-(4-chlorophenyl)-4,4-dimethylcyclohex-1-en-1-yl]methyl}piperazin-1-yl)-N-({3-nitro-4-[(tetrahydro-2H-pyran-4-ylmethyl)amino]phenyl}sulfonyl)-2-[2-(1H-pyrazol-4-yl)phenoxy]benzamide], for which the pKi is 9.78. The compound `CC1(C)CCC(CN2CCN(c3ccc(C(=O)NS(=O)(=O)c4ccc(NC(CO)C5CCOCC5)c([N+](=O)[O-])c4)c(Oc4cc5cc[nH]c5cc4F)c3)CC2)=C(c2ccc(Cl)cc2)C1` (centres unmarked) [Example 240, 4-(4-{[2-(4-chlorophenyl)-4,4-dimethylcyclohex-1-en-1-yl]methyl}piperazin-1-yl)-2-[(6-fluoro-1H-indol-5-yl)oxy]-N-({4-[(2-hydroxy-1-tetrahydro-2H-pyran-4-ylethyl)amino]-3-nitrophenyl}sulfonyl)benzamide] showed a pKi of 9.04. The compound `CN(C)CCCNc1ccc(S(=O)(=O)NC(=O)c2ccc(N3CCN(Cc4ccccc4-c4ccc(Cl)cc4)CC3)cc2Oc2ccc(Cl)cc2)cc1[N+](=O)[O-]` [Example 15, 4-(4-((4′-chloro-1,1′-biphenyl-2-yl)methyl)piperazin-1-yl)-2-(4-chlorophenoxy)-N-((4-((3-(dimethylamino)propyl)amino)-3-nitrophenyl)sulfonyl)benzamide] showed a pKi of 9.23.
